Data as given in the NIST ThermoML archive (doi:10.1021/je060210c).
Numbers after ± are expanded uncertainties.

Conditions: 101.33 kPa, Liquid; for speed of sound: Sing-around technique in a fixed-path interferometer

SMILES | mass density (283.15 K) | speed of sound (283.15 K) | mass density (298.15 K) | speed of sound (298.15 K) | mass density (313.15 K) | speed of sound (313.15 K)
C=C1CCC2CC1C2(C)C (stereo not drawn) [β-pinene] | 879.07 ± 0.77 kg/m3 | 1354.3 ± 1.3 m/s | 867.11 ± 0.8 kg/m3 | 1295.6 ± 1.3 m/s | 854.87 ± 0.83 kg/m3 | 1236.3 ± 1.2 m/s
CCCCCO [pentan-1-ol] | 821.79 ± 0.92 kg/m3 | 1325.9 ± 1.3 m/s | 810.83 ± 0.95 kg/m3 | 1274.1 ± 1.2 m/s | 799.8 ± 0.98 kg/m3 | 1225.5 ± 1.2 m/s
CCCC(C)O (stereo not drawn) [pentan-2-ol] | 816.77 ± 1.9 kg/m3 | 1286.7 ± 2.1 m/s | 804.97 ± 1.9 kg/m3 | 1232.6 ± 2.1 m/s | 792.42 ± 2 kg/m3 | 1168.1 ± 2.1 m/s
